Like-named read-outs stand apart in the source and are kept apart here.
Assays:
μ opioid receptor = target: T1, μ opioid receptor (Cavia porcellus, UniProt A0ACM8Q262); test: Bonding (binding) assay, guinea pig brain homogenate, 3H-DAGO (hot) / naloxone (cold); settings: for Ki: guinea pig brain homogenate; for Ki ratio κ/μ: selectivity ratio
T1 construct: 3H-DAGO (DAMGO) radioligand, cold naloxone
Description: (§1) In the test for bonding, the homogenate of the brain of a guinea pig was diluted with Tris buffer in a ratio calculated to give to the produced solution a protein content of 0.7 mg per prot/tube was used as incorporated in the reaction solution. With regard to ligands for binding assay, 3H-DAGO (μ), DPDPE (δ), and EKC (κ) were used for hot samples and naloxone (μ), DADLE (δ), and naloxone (κ) for cold samples.

δ opioid receptor [1] = target: T2, δ opioid receptor (Cavia porcellus, UniProt A0A286XTF2); test: Bonding (binding) assay, guinea pig brain homogenate, DPDPE (hot) / DADLE (cold)
T2 construct: the homogenate of the brain of a guinea pig; from tissue; host or cells: guinea pig brain homogenate
Description: as §1

δ opioid receptor [2] = test: as above; settings: μ/δ
Description: as §1

κ opioid receptor = target: T3, κ opioid receptor (Cavia porcellus, UniProt P41144); test: Bonding (binding) assay, guinea pig brain homogenate, EKC (hot) / naloxone (cold)
T3 construct: the homogenate of the brain of a guinea pig; from tissue; host or cells: guinea pig brain homogenate
Description: as §1

Mouse Vas Deferens (MVD) = test: Agonist activity in Mouse Vas Deferens (MVD); settings: read-out: MVD IC50
Description: (§2) The test of the compounds of this invention for agonist and antagonist activities was carried out in according to the method proposed by Takemori et al. (Takemori, A, E. et al.: Eur. J. Pharmacal., 1982, 85, 163) using Guinea Pig Ileal Longitudinal Muscle Mouse Vas Deferens (MVD).

δ-receptor = target: T4, δ-receptor (Mus musculus, UniProt P32300); test: Antagonism to DPDPE in Mouse Vas Deferens (MVD)
T4 construct: from tissue; host or cells: mouse vas deferens

[3] = system: Guinea Pig Ileal Longitudinal Muscle; test: Agonist activity in Guinea Pig Ileal Longitudinal Muscle (GPI); settings: for IC50: guinea pig ileum
Description: as §2

[4] = system: Guinea Pig Ileal Longitudinal Muscle; test: GPI, shift of the compound's effect by naloxone or nor-BNI; set-up: GPI nor-BN1 Ke: unit not given here
Description: as §2

mouse T cells = test: Inhibiting proliferation of mouse T cells by Con-A stimulation ([3H]thymidine uptake, spleen cells); assay type: cell-based; settings: for IC50: ConA-stimulated mouse T cells
Description: Now, the immunosuppressive activity of the compound 19 which is representative of the compounds of the present invention will be shown. Activity in inhibiting proliferation of mouse T cells by Con-A stimulation
A monocellular suspension was prepared by sterilely removing the spleen from a mouse and passing the spleen through a mesh. This suspension was adjusted to a concentration of 5×10^6 cells/ml and dispensed by the unit of 100 μl in all the individual wells of a 96-well plate. […] Eight hours before completion of the incubation, [^3 H]thymidine was added to the contents of the wells in a fixed ratio of 2 μCi/10 μl/well. Eight hours after this addition, the cells in the wells were collected on filter papers with the aid of a cell harvester. The cells on the filter papers were dried, then combined with a toluene type scintillator, and counted for the radioactivity of the [^3 H] thymidine occluded in the cells by means of a scintillation counter.
The ratio of suppression of T cell proliferation was calculated in accordance with the following formula:
Rate of suppression=(Radioactivity in the absence of compound-Radioactivityafter addition of compound)/(Radioactivity in the absence of compound-Radioactivity in the absence of ConA)

[5] = guinea pig brain homogenate, read-out: Bonding assay Ki value δ

T3 sequence (P41144 whole entry): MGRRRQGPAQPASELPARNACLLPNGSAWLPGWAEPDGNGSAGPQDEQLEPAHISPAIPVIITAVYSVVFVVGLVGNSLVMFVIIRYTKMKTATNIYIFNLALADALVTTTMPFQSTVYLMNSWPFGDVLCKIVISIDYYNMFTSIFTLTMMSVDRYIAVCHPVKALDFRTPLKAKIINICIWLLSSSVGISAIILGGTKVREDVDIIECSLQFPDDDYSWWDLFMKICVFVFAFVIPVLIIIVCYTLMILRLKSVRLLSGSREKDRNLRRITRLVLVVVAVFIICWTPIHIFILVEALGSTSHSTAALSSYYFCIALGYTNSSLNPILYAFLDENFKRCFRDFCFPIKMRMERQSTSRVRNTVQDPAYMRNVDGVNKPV
T2 sequence (A0A286XTF2 1-366): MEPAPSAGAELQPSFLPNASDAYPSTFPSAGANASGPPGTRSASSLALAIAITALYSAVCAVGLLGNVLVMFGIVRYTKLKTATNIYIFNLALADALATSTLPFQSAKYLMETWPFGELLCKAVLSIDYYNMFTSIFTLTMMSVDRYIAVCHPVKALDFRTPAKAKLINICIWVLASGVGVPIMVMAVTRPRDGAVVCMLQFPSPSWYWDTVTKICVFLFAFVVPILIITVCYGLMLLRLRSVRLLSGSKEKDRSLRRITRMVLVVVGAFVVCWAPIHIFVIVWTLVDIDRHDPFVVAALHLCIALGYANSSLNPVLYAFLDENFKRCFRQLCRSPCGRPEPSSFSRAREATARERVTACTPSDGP
T1 sequence (A0ACM8Q262 1-400): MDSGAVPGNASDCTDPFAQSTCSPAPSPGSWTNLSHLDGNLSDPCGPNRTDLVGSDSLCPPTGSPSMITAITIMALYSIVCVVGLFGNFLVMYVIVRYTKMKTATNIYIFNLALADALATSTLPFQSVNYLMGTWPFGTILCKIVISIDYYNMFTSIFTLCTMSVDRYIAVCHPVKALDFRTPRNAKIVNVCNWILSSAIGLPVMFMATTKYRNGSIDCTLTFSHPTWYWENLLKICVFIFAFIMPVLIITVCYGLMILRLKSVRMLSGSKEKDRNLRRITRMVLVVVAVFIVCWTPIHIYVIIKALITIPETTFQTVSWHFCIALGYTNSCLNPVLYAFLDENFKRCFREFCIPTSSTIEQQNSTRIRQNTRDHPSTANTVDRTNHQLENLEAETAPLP
T4 sequence (P32300 whole entry): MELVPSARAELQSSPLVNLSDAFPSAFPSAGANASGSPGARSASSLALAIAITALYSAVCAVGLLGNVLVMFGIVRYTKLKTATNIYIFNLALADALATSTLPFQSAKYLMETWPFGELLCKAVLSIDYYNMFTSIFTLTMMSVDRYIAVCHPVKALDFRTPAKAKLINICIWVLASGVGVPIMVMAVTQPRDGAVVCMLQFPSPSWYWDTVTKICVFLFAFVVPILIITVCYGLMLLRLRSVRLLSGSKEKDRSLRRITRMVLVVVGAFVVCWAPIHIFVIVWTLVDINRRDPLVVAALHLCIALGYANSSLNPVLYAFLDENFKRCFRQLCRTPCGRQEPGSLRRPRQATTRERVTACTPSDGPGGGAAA

Cc1ccc2[nH]c3c(c2c1)C[C@H]1CN(C)CC[C@]1(c1cccc(O)c1)C3 (relative stereo) [Compound 4, 2-Methyl-4aα-(3-hydroxyphenyl)-9-methyl-1,2,3,4,4a,5,11,11aβ-octahydro-6H-indolo[2,3-q]isoquinoline]
Ki (μ opioid receptor): 6420 nM
Ki ratio κ/μ (μ opioid receptor): > 1.81
Ki (δ opioid receptor [1]; [5]): 1240 nM
Ki ratio μ/δ (δ opioid receptor [2]): > 9.35
Ki ratio μ/δ (δ opioid receptor [2]; selectivity ratio): 5.18
Ki (κ opioid receptor): > 11600 nM
IC50 (Mouse Vas Deferens (MVD)): 46100 nM
Kb (δ-receptor; at 100 nM): 427 nM
MVD Antagonism to DPDPE at 100 nM, DR (δ-receptor; at 100 nM): 3.37
IC50 [3]: 28000 nM
GPI naloxone DR [4]: 0.62
GPI nor-BN1 DR [4]: 1.17

CN1CC[C@]2(c3cccc(O)c3)Cc3c(c4ccccc4n3C)C[C@H]2C1 (relative stereo) [Compound 12, 2-Methyl-4aα-(3-hydroxyphenyl)-1,2,3,4,4a,5,11,11aβ-octahydro-6-methyl-indolo[2,3-g]isoquinoline]
Ki (μ opioid receptor): 1230 nM
Ki ratio κ/μ (μ opioid receptor): 0.31
Ki (δ opioid receptor [1]; [5]): 120 nM
Ki ratio μ/δ (δ opioid receptor [2]): 3.17
Ki ratio μ/δ (δ opioid receptor [2]; selectivity ratio): 10.3
Ki (κ opioid receptor): 380 nM
IC50 (Mouse Vas Deferens (MVD)): 25000 nM
Kb (δ-receptor; at 100 nM): 138 nM
MVD Antagonism to DPDPE at 100 nM, DR (δ-receptor; at 100 nM): 8.27
IC50 [3]: 38700 nM
GPI naloxone DR [4]: 0.61
GPI nor-BN1 DR [4]: 0.70

CN1CC[C@]2(c3cccc(O)c3)Cc3[nH]c4ccc(Cl)cc4c3C[C@H]2C1 (relative stereo) [Compound 6, 2-Methyl-4aα-(3-hydroxyphenyl)-9-chloro-1,2,3,4,4a,5,11,11aβ-octahydro-6H-indolo[2,3-q]isoquinoline]
Ki (μ opioid receptor): > 7090 nM
Ki ratio κ/μ (μ opioid receptor): > 3.86
Ki (δ opioid receptor [1]; [5]): 1100 nM
Ki ratio μ/δ (δ opioid receptor [2]): > 24.9
Ki ratio μ/δ (δ opioid receptor [2]; selectivity ratio): > 6.45
Ki (κ opioid receptor): > 27400 nM
IC50 (Mouse Vas Deferens (MVD)): 23600 nM
Kb (δ-receptor; at 100 nM): 240 nM
MVD Antagonism to DPDPE at 100 nM, DR (δ-receptor; at 100 nM): 5.16
IC50 [3]: 7900 nM
GPI naloxone DR [4]: 0.86
GPI nor-BN1 DR [4]: 1.23
GPI nor-BN1 Ke [4]: 77.0
GPI nor-BN1 pA2 [4]: 7.16

CN1CC[C@]2(c3cccc(O)c3)Cc3[nH]c4ccccc4c3C[C@H]2C1 (relative stereo) [Compound 2, 2-Methyl-4aα-(3-hydroxyphenyl)-1,2,3,4,4a,5,11,11aβ-octahydro-6H-indolo[2,3-g]isoquinoline]
Ki (μ opioid receptor): 1650 nM
Ki ratio κ/μ (μ opioid receptor): > 3.62
Ki (δ opioid receptor [1]; [5]): 193 nM
Ki ratio μ/δ (δ opioid receptor [2]): > 30.9
Ki ratio μ/δ (δ opioid receptor [2]; selectivity ratio): 8.55
Ki (κ opioid receptor): > 5970 nM
IC50 (Mouse Vas Deferens (MVD)): 68600 nM
Kb (δ-receptor; at 100 nM): 138 nM
MVD Antagonism to DPDPE at 100 nM, DR (δ-receptor; at 100 nM): 8.14
IC50 [3]: 65100 nM
GPI naloxone DR [4]: 1.12
GPI nor-BN1 DR [4]: 1.25
GPI nor-BN1 Ke [4]: 301
GPI nor-BN1 pA2 [4]: 6.65

CN1CC[C@]2(c3cccc(O)c3)Cc3[nH]c4c(F)cccc4c3C[C@H]2C1 (relative stereo) [Compound 8, 2-Methyl-4aα-(3-hydroxyphenyl)-7-fluoro-1,2,3,4,4a,5,11,11aβ-octahydro-6H-indolo[2,3-g]isoquinoline]
Ki (μ opioid receptor): 4590 nM
Ki ratio κ/μ (μ opioid receptor): > 1.47
Ki (δ opioid receptor [1]): 59 nM
Ki ratio μ/δ (δ opioid receptor [2]): > 114
Ki ratio μ/δ (δ opioid receptor [2]; selectivity ratio): 77.8
Ki (κ opioid receptor): > 6750 nM
IC50 (Mouse Vas Deferens (MVD)): 25900 nM
Kb (δ-receptor; MVD Antagonism to DPDPE at 100 nM, pA2, at 100 nM): 70.8 nM
MVD Antagonism to DPDPE at 100 nM, DR (δ-receptor; at 100 nM): 15.0
IC50 [3]: 23000 nM
GPI naloxone DR [4]: 0.80
GPI nor-BN1 DR [4]: 1.04

Oc1cccc([C@]23CCN(CC4CC4)C[C@@H]2Cc2c([nH]c4ccccc24)C3)c1 (relative stereo) [Compound 19, 2-Cyclopropylmethyl-4aα-(3-hydroxyphenyl)-1,2,3,4,4a,5,11,11β-octahydro-6H-indolo[2,3-g]isoquinoline]
Ki (μ opioid receptor): 716 nM
Ki (δ opioid receptor [1]): 3.5 nM
Ki (κ opioid receptor): 951 nM
IC50 (Mouse Vas Deferens (MVD)): 28900 nM
MVD Antagonism to DPDPE, DR (δ-receptor; (20 nM)): 5.17
MVD Antagonism to DPDPE, DR (δ-receptor; (50 nM)): 9.62
Kb (δ-receptor; MVD Antagonism to DPDPE, pA2, (20 nM)): 5.01 nM
Kb (δ-receptor; MVD Antagonism to DPDPE, pA2, (50 nM)): 6.03 nM
effect on inhibition of contraction by DPDPE, in words (δ-receptor; Mouse Vas Deferens): selectively attenuate the inhibition of contraction by DPDPE
effect on contraction of guinea pig ileum, in words [3]: avoids affecting the inhibition of contraction of the ileum of a guinea pig
IC50 [3]: 34600 nM
GPI naloxone DR [4]: 0.93
GPI nor-BN1 DR [4]: 0.95
activity in immunosuppression / inhibiting T cell proliferation, in words (mouse T cells): clearly strong activity in immunosuppression
inhibition at 0.1 µg/mL (mouse T cells; Mus musculus, T-cell, 48 h, 0.1 μg/ml, n = 3, read-out: Ratio of suppression of T cell proliferation): 6%
inhibition at 0.5 µg/mL (mouse T cells; Mus musculus, T-cell, 48 h, 0.5 μg/ml, n = 3, read-out: Ratio of suppression of T cell proliferation): 0%
inhibition at 0.75 µg/mL (mouse T cells; Mus musculus, T-cell, 48 h, 0.75 μg/ml, n = 3, read-out: Ratio of suppression of T cell proliferation): 18%
inhibition at 1 µg/mL (mouse T cells; Mus musculus, T-cell, 48 h, 1.0 μg/ml, n = 3, read-out: Ratio of suppression of T cell proliferation): 1%
inhibition at 2.5 µg/mL (mouse T cells; Mus musculus, T-cell, 48 h, 2.5 μg/ml, n = 3, read-out: Ratio of suppression of T cell proliferation): 33%
inhibition at 5 µg/mL (mouse T cells; Mus musculus, T-cell, 48 h, 5.0 μg/ml, n = 3, read-out: Ratio of suppression of T cell proliferation): 94%
inhibition at 7.5 µg/mL (mouse T cells; Mus musculus, T-cell, 48 h, 7.5 μg/ml, n = 3, read-out: Ratio of suppression of T cell proliferation): 100%
inhibition at 10 µg/mL (mouse T cells; Mus musculus, T-cell, 48 h, 10.0 μg/ml, n = 3, read-out: Ratio of suppression of T cell proliferation): 100%
inhibition at 12.5 µg/mL (mouse T cells; Mus musculus, T-cell, 48 h, 12.5 μg/ml, n = 3, read-out: Ratio of suppression of T cell proliferation): 100%
inhibition at 15 µg/mL (mouse T cells; Mus musculus, T-cell, 48 h, 15.0 μg/ml, n = 3, read-out: Ratio of suppression of T cell proliferation): 100%
inhibition at 17.5 µg/mL (mouse T cells; Mus musculus, T-cell, 48 h, 17.5 μg/ml, n = 3, read-out: Ratio of suppression of T cell proliferation): 100%
inhibition at 20 µg/mL (mouse T cells; Mus musculus, T-cell, 48 h, 20.0 μg/ml, n = 3, read-out: Ratio of suppression of T cell proliferation): 100%
IC50 (mouse T cells; Mus musculus, T-cell, read-out: IC50, activity in inhibiting T cell hyperplasia (Table 3)): 2.7 µg/mL
IC50 (mouse T cells; Mus musculus, T-cell, read-out: IC50 value, immunosuppression (text to Table 2)): 3 µg/mL

From US5539119A, “Indole derivatives” (priority 1990, dated 1996)
